Experimental data: US20130209986A1, “METHOD FOR ENHANCING BUTYRATE PRODUCTION BY CLOSTRIDIUM TYROBUTYRICUM” (KOREA INSTITUTE OF SCIENCE AND TECHNOLOGY, priority 2012, published 2013)

How the values were obtained:
[1] = system: Clostridium tyrobutyricum strains; test: Fermentation of Clostridium tyrobutyricum with an electron transfer mediator added to the P2 culture medium (Experimental Example 1); type: cell-based; conditions: for Enhancement of butyrate production by simply adding the mediator to the medium: simple addition, no reduction electrode
Protocol: The P2 culture medium (Qureshi and Blaschek 1999) of pH 6.4±0.1 containing sucrose of 20 g/L instead glucose was sterilized. The Methyl Viologen (MV) (E°′=−446 mV) (Aldrich, South Korea) was added to the sterilized P2 culture medium with the concentrations of 0.1 mM (embodiment 1-1), 0.4 mM (embodiment 1-2), 0.5 mM (embodiment 1-3), 1.0 mM (embodiment 1-4), 2.0 mM (embodiment 1-5), 5.0 mM (embodiment 1-6) and 10.0 mM (embodiment 1-7). The separated Clostridium tyrobutyricum strains were inoculated on the MV-added P2 culture medium and were cultured at 37° C. and 150 rpm.
The strains were cultured under the same conditions as the conditions of the embodiments 1-1 to 1-7 except for the strains which didn't have an added MV.
The strains were cultured under the same conditions as the conditions of the embodiments 1-1 to 1-7 except for the strains on which 0.1 mM and 0.5 mM of the Neutral Red (NR) (E°′=−325 mV) (Aldrich, South Korea) were added instead of the MV.
The strains were cultured under the same conditions as the conditions of the embodiments 1-1 to 1-7 except for the strains on which 0.5 mM of anthraquinone-1,5-disulfonic acid, AQDS) (E°′=−184 mV) (Aldrich, South Korea) was added instead of the MV.
The butyrate and acetate produced through the embodiments 1-1 to 1-7, the comparison example 1, the comparison examples 2-1 to 2-7 and the comparison examples 3-1 to 3-7 were analyzed by HP-INNOWax column (30 m×250 μm×0.25 μm, Agilent Technologies and the gas chromatography (GC, Agilent technology 6890N Network GC System) with the frame-ionized detector. The hydrogen and carbon dioxide were quantified by multiplying the gas composition with the increased gas volume. The gas composition percentage was analyzed by the GC having a heat conductivity detector. The consumed sucrose concentration was quantified by a high performance liquid chromatography (HPLC) (Hi-plex H, Agilent, Santa Clara, Calif.) with 5 mM of sulfuric acid as a mobile phase at the flow rate of 0.5 mLmin^−1. The growth of microorganisms was checked at 600 nm of absorbance by using Shimadzu UVmini-1240 spectrophotometer or was checked with the Chemical Oxygen Demand (COD, mg/L unit) induced by the base soluble COD from the total COD by using COD vials (C-mac, South Korea, concentration range of 10-1,500 mg/L). The obtained values were average values obtained as the experiments were repeatedly performed three times or four times under a corresponding condition.

[2] = system: Clostridium tyrobutyricum; test: Fermentation of Clostridium tyrobutyricum in a bioelectrical reactor (BER) with reduction electrode and electron transfer mediator (Experimental Example 2); type: cell-based
Protocol: A Bioelectrical Reactor (BER) formed of Pyrex was manufactured, which was specially designed for the sake of the anaerobic bacteria culture by changing a little the H-type reactor with a dual chamber (450 mL each). The reduction electrode (cathode) was a graphite felt electrode (4.5 cm×12 cm), and the oxidation electrode (anode) was a Pt plate electrode (2.5 cm×5 cm). The reference electrode was Ag/AgCl, 3 M KCl (BASi, West Lafayette, Ind.) and was dipped at a portion of the reduction electrode. The portions of the oxidation electrode and the reduction electrode were separated by Nafion 117 positive ion-exchange membrane (Naracell-tech, South Korea). The biological gas was collected by a Tedlar bag connected with a stainless steel fitting inserted in a reduction electrode stopper. The temperature of the reactor was maintained at 37±1° C. by a heating tape (Daihan, South Korea). The temperature sensor was inserted into a partition of the oxidation electrode by way of the stainless steel stand rod.
The portion of the reduction electrode of the reactor has features in that the neutral red was filled with the P2 medium added with 0.1 mM, and the portion of the oxidation electrode was filled with hexacyanoferrate [K4(Fe(CN)6)·3H2O]. The BER operated under a constant reduction electrode potential of −400 mV (vs. Ag/AgCl). The above mentioned potential was set by the potentiostat/galvanostat (EG&G Princeton Applied Research, Model 273A, Princeton, N.J.) which could be controlled by a computer. So, the current between the oxidation electrode and the reduction electrode was monitored. The reduction voltage applied to the reduction electrode was determined from the redox peak in the cyclic voltammogram of the culture liquid to which the neutral red was added at the scan speed of 20 mV/s based on the reduction electrode versus Ag/AgCl. The reduction of the neutral red by the reduction electrode appeared as the color of the solution turned from the red (NRox) to the yellow (NRred) when it was balanced to the negative potential within 5-30 minutes. For the sake of pH-adjusted BER operation, pH was maintained at 6 by temporarily adding 3M NaOH.
The embodiment 3 was performed in the same manner as the embodiment 2 except for the adjustment of pH.
The embodiment 4 was performed in the same manner as the embodiment 2 except that the portion of the reduction electrode of the reactor was filed with the P2 medium added with the MV of 0.5 mM of concentration was operated under a constant reduction electrode potential of −750 mV (vs. Ag/AgCl). In case of the MV, the reduction had features in that the color of the solution turned from a colorlessness (MVox) to a purple color (MVred).

[3] = Embodiment 4: methyl viologen 0.5 mM, −750 mV
[4] = methyl viologen 0.1 mM (embodiment 1-1)
[5] = methyl viologen 0.4 mM (embodiment 1-2)
[6] = methyl viologen 0.5 mM (embodiment 1-3)
[7] = methyl viologen 1 mM (embodiment 1-4)
[8] = methyl viologen 2 mM (embodiment 1-5)
[9] = methyl viologen 5 mM (embodiment 1-6)
[10] = methyl viologen 10 mM (embodiment 1-7)
[11] = Embodiment 2: BER with neutral red 0.1 mM, −400 mV, pH 6 controlled
[12] = Embodiment 3: BER with neutral red 0.1 mM, −400 mV, no pH control

`O=C1c2cccc(S(=O)(=O)O)c2C(=O)c2cccc(S(=O)(=O)O)c21` [AQDS, anthraquinone-1,5-disulfonic acid] was tested, and the “Enhancement of butyrate production by simply adding the mediator to the medium” value (“Enhancement of butyrate production” below) [1] was “impossible to enhance the production of butyrate”.
With `C[n+]1ccc(-c2cc[n+](C)cc2)cc1` [Methyl viologen, Methyl Viologen] the “Acetate productivity (maximum productivity)” value (from here on “Acetate productivity”) [2, 3] was 0.25 ± 0 g/L, h^−1, the “Butyrate productivity (maximum productivity)” value (shortened to “Butyrate productivity”) [2, 3] was 0.34 ± 0.01 g/L, h^−1 and the Butyrate yield [2, 3] was 0.43 ± 0.02 g butyrate/g sucrose. The Final butyrate concentration [2, 3] was 7.1 ± 0.4 g/L, the “Maximum O.D. (600 nm)” value [2, 3] was 5.3 ± 0.4 and the Specific growth rate [2, 3] was 0.10 ± 0.01 h⁻¹. For the same compound, the “Sucrose uptake rate (maximum uptake rate)” value (“Sucrose uptake rate” for short) [2, 3] was 0.85 ± 0.05 g/L, h^−1, the “Production of butyrate in the reduction electrode system” value ([2]; MV, embodiment 4, −750 mV vs. Ag/AgCl) was “didn't help enhance the production of butyrate” and the “Final concentration of butyrate as compared to the comparison group” value ([1]; 0.5 mM, simple addition without reduction electrode) was “about 1.5 times”. The “Production of butyrate among MV, NR and AQDS (FIG. 2)” value ([1]; mediators added at 0.5 mM) was “highest”, the “Bio-gas % vs. control” value [1, 4] was 82% and the Bio-gas vol [1, 4] was 110 mL. The “Butyrate % vs. control” value [1, 4] was 115%, the Butyrate final conc. [1, 4] was 6.5 g/L and the “OD (600 nm)” value ([1]; methyl viologen 0.1 mM (embodiment 1-1), P2 medium sucrose 20 g/L, 37° C.) was 6.2 (±0.4). The “Bio-gas % vs. control” value [1, 5] was 80%, the Bio-gas vol [1, 5] was 107 mL and the “Butyrate % vs. control” value [1, 5] was 128%. For the same compound, the Butyrate final conc. [1, 5] was 7.3 g/L, the “OD (600 nm)” value [1, 5] was 6.3 (±0)^ and the “Bio-gas % vs. control” value [1, 6] was 65%. For the same compound, the Bio-gas vol [1, 6] was 87 mL, the “Butyrate % vs. control” value [1, 6] was 150% and the Butyrate final conc. [1, 6] was 8.5 g/L. The “OD (600 nm)” value [1, 6] was 5.8 (±0.3), the “Bio-gas % vs. control” value [1, 7] was 50% and the Bio-gas vol [1, 7] was 67 mL. The “Butyrate % vs. control” value [1, 7] was 109%, the Butyrate final conc. [1, 7] was 6.2 g/L and the “OD (600 nm)” value [1, 7] was 5.4 (±0.8). For the same compound, the “Bio-gas % vs. control” value [1, 8] was 34%, the Bio-gas vol [1, 8] was 46 mL and the “Butyrate % vs. control” value [1, 8] was 112%. The Butyrate final conc. [1, 8] was 6.4 g/L, the “OD (600 nm)” value [1, 8] was 3.9 (±0.9) and the “Bio-gas % vs. control” value [1, 9] was 3%. The Bio-gas vol [1, 9] was 4 mL, the “Butyrate % vs. control” value [1, 9] was 14% and the Butyrate final conc. [1, 9] was 0.8 g/L. For the same compound, the “OD (600 nm)” value [1, 9] was 1.5 (±1.9), the “Bio-gas % vs. control” value [1, 10] was 3% and the Bio-gas vol [1, 10] was 4 mL. For the same compound, the “Butyrate % vs. control” value [1, 10] was 12%, the Butyrate final conc. [1, 10] was 0.7 g/L and the “OD (600 nm)” value [1, 10] was 0.2 (±0.1).
With `Cc1cc2nc3ccc(N(C)C)cc3nc2cc1N.Cl` [neutral red, Neutral Red] the “Acetate productivity” value [2, 11] was 0 g/L, h^−1, the “Butyrate productivity” value [2, 11] was 0.28 ± 0.01 g/L, h^−1 and the Butyrate yield [2, 11] was 0.44 ± 0.04 g butyrate/g sucrose. The Final butyrate concentration [2, 11] was 8.8 ± 0.9 g/L, the “Maximum O.D. (600 nm)” value [2, 11] was 5.1 ± 0.7 and the Specific growth rate [2, 11] was 0.87 ± 0.64 h⁻¹. For the same compound, the “Sucrose uptake rate” value [2, 11] was 0.67 ± 0 g/L, h^−1, the “Acetate productivity” value [2, 12] was 0 g/L, h^−1 and the “Butyrate productivity” value [2, 12] was 0.31 ± 0.07 g/L, h^−1. The Butyrate yield [2, 12] was 0.45 ± 0.02 g butyrate/g sucrose, the Final butyrate concentration [2, 12] was 6.7 ± 0.3 g/L and the “Maximum O.D. (600 nm)” value [2, 12] was 5.0 ± 0.4. The Specific growth rate [2, 12] was 0.11 ± 0.01 h⁻¹, the “Sucrose uptake rate” value [2, 12] was 0.64 ± 0.31 g/L, h^−1 and the “Production of butyrate (FIG. 4)” value ([2]; embodiment 2, neutral red reduction electrode system, increased from 5 g/L) was 8 g/L. The “Acetic acid production in the reduction electrode system” value ([2]; embodiments 2 and 3, neutral red) was “did not produce acetic acid”, the “Production of butyrate in the reduction electrode system” value ([2]; neutral red, embodiments 2 and 3, −400 mV vs. Ag/AgCl) was “increase in the production of butyrate” and the “Enhancement of butyrate production” value [1] was “didn't make any effects”. For the same compound, the “Enhancement of butyrate production” value ([1]; listed as NR) was “impossible to enhance the production of butyrate”.
